The record followed here is patent US8415351B2 (priority 2007, dated 2013).

Usually IC50 stands for the concentration that inhibits the measured activity by half. A low value points to greater potency in that assay. The term EC50 denotes the concentration needed to bring the measured effect to its halfway point.

The structures appear in SMILES notation. Structures can show the parent of a compound that is named as a salt.

In assay [1] the target is T1, HCV polymerase 1A (Δ21 NS5B, H77) (Hepatitis C virus genotype 1a, UniProt P27958).
T1 construct: 20 to 50 nM Δ21 NS5B
T1 sequence (P27958 2421-2990, stated change not applied): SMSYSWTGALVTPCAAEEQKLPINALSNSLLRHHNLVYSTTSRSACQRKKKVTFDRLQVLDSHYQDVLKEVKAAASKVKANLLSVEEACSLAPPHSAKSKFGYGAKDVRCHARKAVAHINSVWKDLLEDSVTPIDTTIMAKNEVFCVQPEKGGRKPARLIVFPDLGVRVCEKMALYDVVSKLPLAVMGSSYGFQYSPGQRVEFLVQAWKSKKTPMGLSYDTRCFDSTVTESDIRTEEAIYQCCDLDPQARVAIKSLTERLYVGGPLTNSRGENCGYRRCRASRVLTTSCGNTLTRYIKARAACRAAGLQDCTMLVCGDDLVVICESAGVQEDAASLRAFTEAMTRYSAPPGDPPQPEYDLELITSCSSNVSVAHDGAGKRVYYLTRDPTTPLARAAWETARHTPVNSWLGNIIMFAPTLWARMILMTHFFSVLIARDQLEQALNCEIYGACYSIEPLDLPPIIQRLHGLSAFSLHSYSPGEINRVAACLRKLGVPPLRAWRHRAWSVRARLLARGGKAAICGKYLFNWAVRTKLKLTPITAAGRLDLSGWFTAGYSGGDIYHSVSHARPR
Kind of assay: biochemical. To be noted: IC50 1a. In a few lines:
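Incorporation of 1 μM ^3H-UTP, with 20 μM each of CTP and ATP on 5 nM template RNA, ran 2–4 h at room temperature. Spermine-precipitated product was filtered and scintillation-counted. IC50 came from tight-binding non-linear regression of cpm against inhibitor concentration.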

In assay [2] the target is T2, HCV polymerase 1B (Δ21 NS5B, BK) (Hepatitis C virus genotype 1b, UniProt P26663).
T2 construct: 20 to 50 nM Δ21 NS5B
T2 sequence (P26663 2420-2989, stated change not applied): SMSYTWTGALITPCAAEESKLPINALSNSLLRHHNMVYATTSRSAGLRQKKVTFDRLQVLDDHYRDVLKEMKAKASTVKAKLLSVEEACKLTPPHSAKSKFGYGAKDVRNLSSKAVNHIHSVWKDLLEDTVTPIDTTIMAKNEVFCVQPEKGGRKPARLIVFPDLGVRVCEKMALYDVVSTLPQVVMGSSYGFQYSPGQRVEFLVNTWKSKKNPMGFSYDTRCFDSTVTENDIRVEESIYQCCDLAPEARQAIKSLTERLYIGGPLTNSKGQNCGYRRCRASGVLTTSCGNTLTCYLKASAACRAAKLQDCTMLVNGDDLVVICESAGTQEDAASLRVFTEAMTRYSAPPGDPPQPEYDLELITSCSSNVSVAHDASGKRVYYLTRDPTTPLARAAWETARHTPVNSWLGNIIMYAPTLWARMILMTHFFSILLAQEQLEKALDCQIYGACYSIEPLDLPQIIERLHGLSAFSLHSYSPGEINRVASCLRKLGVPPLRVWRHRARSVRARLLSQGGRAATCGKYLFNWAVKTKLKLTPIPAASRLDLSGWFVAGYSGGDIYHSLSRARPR
Kind of assay: biochemical. In a few lines: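 Δ21 NS5B (genotype 1b, BK […]) preincubated 15 min RT with inhibitor, 2 mM MnCl2, pH 7.4, 60–125 μM GTP; started with 20 μM CTP/ATP, 1 μM 3H-UTP, 5 nM template RNA, run 2–4 h RT. Spermine-precipitated RNA filter-captured, scintillation counted; IC50 from tight-binding (Morrison) fit.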

For assay [3], the system named is genotype 1b-Con1 subgenomic replicon cell line. As to the kind of experiment: microbe, parasite or virus in culture. The assay is classed as cell-based, HCV. The following applies: Hepatitis C virus, read-out: EC50 1b.

On to `COc1c(C(=O)Nc2ccc(NS(C)(=O)=O)nc2)cc(N2CCC(=O)NC2=O)cc1C(C)(C)C` [IA-L3-1.99, 3-tert-butyl-5-(2,4-dioxotetrahydropyrimidin-1(2H)-yl)-2-methoxy-N-(6-(methylsulfonamido)pyridin-3-yl)benzamide], for which the IC50 is 10 to 100 nM in assay [1] and 100 to 1000 nM in assay [2]. In assay [3], the half-maximal effective concentration (EC50) fell in the range of 100 to 1000 nM.
`COc1c(C#Cc2ccc(NS(C)(=O)=O)cc2C(C)(C)C)cc(-n2ccc(=O)[nH]c2=O)cc1C(C)(C)C` [IB-L2-1.10, N-(3-tert-butyl-4-((3-tert-butyl-5-(2,4-dioxo-3,4-dihydropyrimidin-1(2H)-yl)-2-methoxy-phenyl)ethynyl)phenyl)methanesulfonamide]: the figures for the IC50 in assay [1] and in assay [2] were less than 10 nM and 10 to 100 nM, respectively. Moreover, the EC50 in assay [3] was 10 to 100 nM.
Regarding `COc1c(C(=O)Nc2ccc(N(COC(=O)C(C)(C)C)S(C)(=O)=O)cc2)cc(N2CCC(=O)NC2=O)cc1C(C)(C)C` [IA-L3-1.65, (N-(4-(3-tert-butyl-5-(2,4-dioxotetrahydropyrimidin-1(2H)-yl)-2-methoxybenzamido)phenyl)methylsulfonamido)methyl pivalate], the half-inhibitory concentration (IC50) in assay [1] and in assay [2] was greater than 1000 nM in each case.
Take `CC(C)(C)c1cc(N2CCC(=O)NC2=O)cc(CNc2ccc(NS(C)(=O)=O)cc2)c1O` [IA-L9-1.3, N-(4-(3-tert-butyl-5-(2,4-dioxotetrahydropyrimidin-1(2H)-yl)-2-hydroxybenzylamino)phenyl)methanesulfonamide]: the IC50 in assay [1] and in assay [2] was greater than 1000 nM in each case.
As for `COc1c(C(=O)Nc2ccccc2S(N)(=O)=O)cc(N2CCC(=O)NC2=O)cc1C(C)(C)C` [IA-L3-1.80, 3-tert-butyl-5-(2,4-dioxotetrahydropyrimidin-1(2H)-yl)-2-methoxy-N-(2-sulfamoylphenyl)benzamide], the IC50 in assay [1] and in assay [2] was greater than 1000 nM in each case.
Turning to `CC(C)(C)c1cc(N2CCC(=O)NC2=O)cc(NC(=O)c2ccccc2)c1O` [IA-L4-1.2, N-(3-tert-butyl-5-(2,4-dioxotetrahydropyrimidin-1(2H)-yl)-2-hydroxyphenyl)benzamide], the IC50 in assay [1] and in assay [2] was greater than 1000 nM throughout.
On to `COc1c(C(=O)Nc2ccc(NC(C)=O)cc2)cc(N2CCC(=O)NC2=O)cc1C(C)(C)C` [IA-L3-1.47, N-(4-acetamidophenyl)-3-tert-butyl-5-(2,4-dioxotetrahydropyrimidin-1(2H)-yl)-2-methoxy-benzamide], for which the IC50 in assay [1] and in assay [2] was greater than 1000 nM each time.
`CC(C)(C)c1cc(N2CCC(=O)NC2=O)cc(CN2CCCC(C(N)=O)C2)c1O` (stereo not drawn) [IA-L5-1-1.8, 1-[3-tert-butyl-5-(2,4-dioxo-tetrahydro-pyrimidin-1-yl)-2-hydroxy-benzyl]-piperidine-3-carboxylic acid amide, trifluoroacetic acid salt]: the IC50 in assay [1] and in assay [2] was greater than 1000 nM each time.
In the case of `CC(C)(C)OC(=O)NC1CCN(Cc2cc(N3CCC(=O)NC3=O)cc(C(C)(C)C)c2O)CC1` [IA-L5-1-1.1, {1-[3-tert-butyl-5-(2,4-dioxo-tetrahydro-pyrimidin-1-yl)-2-hydroxy-benzyl]-piperidin-4-yl}-carbamic acid tert-butyl ester], the IC50 in assay [1] and in assay [2] was greater than 1000 nM throughout.
For `COc1c(C(=O)Nc2ccc(N(S(C)(=O)=O)S(C)(=O)=O)cn2)cc(N2CCC(=O)NC2=O)cc1C(C)(C)C` [IA-L3-1.101, 3-tert-butyl-5-(2,4-dioxotetrahydropyrimidin-1(2H)-yl)-2-methoxy-N-(5-(N-(methylsulfonyl)methylsulfonamido)pyridin-2-yl)benzamide], the IC50 in assay [1] and in assay [2] was greater than 1000 nM each time.
As to `COc1c(C(=O)Nc2ccc(C(C)=O)cc2)cc(N2CCC(=O)NC2=O)cc1C(C)(C)C` [IA-L3-1.42, N-(4-acetylphenyl)-3-tert-butyl-5-(2,4-dioxotetrahydropyrimidin-1(2H)-yl)-2-methoxy-benzamide], the IC50 in assay [1] and in assay [2] was greater than 1000 nM each time.
